The record followed here is patent US20260108451A1, “COMPOSITIONS FOR THE MANAGEMENT OF HIRSUTISM” (priority 2022, published 2026).

The subject of this experiment is Ornithine decarboxylase (ODC). As to the kind of experiment: Expression of ornithine decarboxylase (ODC) by flow cytometry in dermal papilla cells. The experiment is classed as cell-based, human. The conditions noted are these: Control 26.8%. How it is done: Dermal papilla cells (DPC) were cultured in DMEM medium with 10% FBS and seeded in 96 well tissue culture plate for the test. 24 hrs post seeding, DPC were treated with the test sample Ar-Turmerone at graded concentrations and incubated for 48 hrs in 5% CO2 incubator at 37° C. After 48 hrs the cells were collected from each well. These cells were incubated with Fluorescein isothiocyanate (FITC) labelled Ornithine-de-carboxylase antibody. After being washed with sterile PBS, samples were resuspended in PBS (pH 7.4) and acquired directly on the Flow cytometer. A fluorescence trigger was set on the FITC (FL1) parameter of the gated DPC populations (10,000 events). Percentage decrease of ODC expression in test samples was calculated with respect to un-treated cells (control), (FIG. 1).
Background: In flow cytometry, cells or beads pass a laser one at a time.

`NCCCC(N)(C(=O)O)C(F)F` (stereo not shown) [Eflornithine]: the “% Expression of ODC at 100 μg/ml” value turned out to be 11.4%.
